What was measured:
Assay in all cases: relative viability (nuclei count vs DMSO), 5 days (fraction); higher = more cells survive
NCI-H1993 = system: NCI-H1993
Summary of the method: (§1)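 Lung cancer cell lines in 1536-well plates got either a single drug or a fixed anchor-drug dose together with five library-drug doses (not always all listed) in √10 steps, by pin tool, on the day after seeding. Nuclei were counted after 5 days, and relative viability is the treated-to-vehicle ratio of nuclei counts. Values are medians of duplicate plates.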

LXF-289 = system: LXF-289
Summary of the method: as §1

HOP-62 = system: HOP-62
Summary of the method: as §1

ChaGo-K-1 = system: ChaGo-K-1
Summary of the method: as §1

HCC-15 = system: HCC-15
Summary of the method: as §1

EPLC-272H = system: EPLC-272H
Summary of the method: as §1

NCI-H358 = system: NCI-H358
Summary of the method: as §1

EMC-BAC-2 = system: EMC-BAC-2
Summary of the method: as §1

NCI-H441 = system: NCI-H441
Summary of the method: as §1

HCC-78 = system: HCC-78
Summary of the method: as §1

NCI-H1915 = system: NCI-H1915
Summary of the method: as §1

NCI-H1755 = system: NCI-H1755
Summary of the method: as §1

ABC-1 = system: ABC-1
Summary of the method: as §1

NCI-H1666 = system: NCI-H1666
Summary of the method: as §1

NCI-H2126 = system: NCI-H2126
Summary of the method: as §1

NCI-H322M = system: NCI-H322M
Summary of the method: as §1

NCI-H2085 = system: NCI-H2085
Summary of the method: as §1

NCI-H1975 = system: NCI-H1975
Summary of the method: as §1

CAL-12T = system: CAL-12T
Summary of the method: as §1

NCI-H3122 = system: NCI-H3122
Summary of the method: as §1

SMILES: CC1(C)CCC(c2ccc(Cl)cc2)=C(CN2CCN(c3ccc(C(=O)NS(=O)(=O)c4ccc(N[C@H](CCN5CCOCC5)CSc5ccccc5)c(S(=O)(=O)C(F)(F)F)c4)cc3)CC2)C1 [Navitoclax] + NC(=O)Nc1cc(-c2cccc(F)c2)sc1C(=O)N[C@H]1CCCNC1 [AZD7762] (partner 0.2 µM)
- relative viability (NCI-H1993; first compound 0.005 µM): 0.738
- relative viability (NCI-H1993; first compound 0.01581 µM): 1.05
- relative viability (NCI-H1993; first compound 0.05 µM): 0.552
- relative viability (NCI-H1993; first compound 0.1581 µM): 0.721
- relative viability (NCI-H1993; first compound 0.5 µM): 0.641
- relative viability (LXF-289; first compound 0.005 µM): 1.11
- relative viability (LXF-289; first compound 0.01581 µM): 1.18
- relative viability (LXF-289; first compound 0.05 µM): 0.924
- relative viability (LXF-289; first compound 0.1581 µM): 1.06
- relative viability (LXF-289; first compound 0.5 µM): 1.04
- relative viability (HOP-62; first compound 0.005 µM): 0.721
- relative viability (HOP-62; first compound 0.01581 µM): 0.694
- relative viability (HOP-62; first compound 0.05 µM): 0.514
- relative viability (HOP-62; first compound 0.1581 µM): 0.512
- relative viability (HOP-62; first compound 0.5 µM): 0.384
- relative viability (ChaGo-K-1; first compound 0.005 µM): 0.879
- relative viability (ChaGo-K-1; first compound 0.01581 µM): 0.875
- relative viability (ChaGo-K-1; first compound 0.05 µM): 0.655
- relative viability (ChaGo-K-1; first compound 0.1581 µM): 0.883
- relative viability (ChaGo-K-1; first compound 0.5 µM): 0.803
- relative viability (HCC-15; first compound 0.005 µM): 0.868
- relative viability (HCC-15; first compound 0.01581 µM): 1.2
- relative viability (HCC-15; first compound 0.05 µM): 0.838
- relative viability (HCC-15; first compound 0.1581 µM): 1.03
- relative viability (HCC-15; first compound 0.5 µM): 1.05
- relative viability (EPLC-272H; first compound 0.005 µM): 0.26
- relative viability (EPLC-272H; first compound 0.05 µM): 0.3
- relative viability (EPLC-272H; first compound 0.1581 µM): 0.143
- relative viability (EPLC-272H; first compound 0.5 µM): 0.257
- relative viability (NCI-H358; first compound 0.005 µM): 0.566
- relative viability (NCI-H358; first compound 0.01581 µM): 0.712
- relative viability (NCI-H358; first compound 0.05 µM): 0.545
- relative viability (NCI-H358; first compound 0.1581 µM): 0.485
- relative viability (NCI-H358; first compound 0.5 µM): 0.592
- relative viability (EMC-BAC-2; first compound 0.005 µM): 1.03
- relative viability (EMC-BAC-2; first compound 0.01581 µM): 1.26
- relative viability (EMC-BAC-2; first compound 0.05 µM): 1.07
- relative viability (EMC-BAC-2; first compound 0.1581 µM): 1.09
- relative viability (EMC-BAC-2; first compound 0.5 µM): 1.13
- relative viability (NCI-H441; first compound 0.005 µM): 1.12
- relative viability (NCI-H441; first compound 0.01581 µM): 1.19
- relative viability (NCI-H441; first compound 0.05 µM): 1.22
- relative viability (NCI-H441; first compound 0.1581 µM): 1.04
- relative viability (NCI-H441; first compound 0.5 µM): 1.24
- relative viability (HCC-78; first compound 0.005 µM): 0.985
- relative viability (HCC-78; first compound 0.01581 µM): 0.612
- relative viability (HCC-78; first compound 0.05 µM): 0.508
- relative viability (HCC-78; first compound 0.1581 µM): 0.607
- relative viability (HCC-78; first compound 0.5 µM): 0.667
- relative viability (NCI-H1915; first compound 0.005 µM): 0.726
- relative viability (NCI-H1915; first compound 0.01581 µM): 0.697
- relative viability (NCI-H1915; first compound 0.05 µM): 0.657
- relative viability (NCI-H1915; first compound 0.1581 µM): 0.639
- relative viability (NCI-H1915; first compound 0.5 µM): 0.597
- relative viability (NCI-H1755; first compound 0.005 µM): 0.426
- relative viability (NCI-H1755; first compound 0.01581 µM): 0.462
- relative viability (NCI-H1755; first compound 0.05 µM): 0.322
- relative viability (NCI-H1755; first compound 0.1581 µM): 0.439
- relative viability (NCI-H1755; first compound 0.5 µM): 0.474
- relative viability (ABC-1; first compound 0.005 µM): 0.816
- relative viability (ABC-1; first compound 0.01581 µM): 1.22
- relative viability (ABC-1; first compound 0.1581 µM): 0.687
- relative viability (ABC-1; first compound 0.5 µM): 0.72
- relative viability (NCI-H1666; first compound 0.005 µM): 0.934
- relative viability (NCI-H1666; first compound 0.01581 µM): 0.883
- relative viability (NCI-H1666; first compound 0.05 µM): 0.738
- relative viability (NCI-H1666; first compound 0.1581 µM): 0.861
- relative viability (NCI-H1666; first compound 0.5 µM): 0.882
- relative viability (NCI-H2126; first compound 0.005 µM): 1.06
- relative viability (NCI-H2126; first compound 0.01581 µM): 0.931
- relative viability (NCI-H2126; first compound 0.05 µM): 1.05
- relative viability (NCI-H2126; first compound 0.1581 µM): 0.915
- relative viability (NCI-H2126; first compound 0.5 µM): 0.947
- relative viability (NCI-H322M; first compound 0.005 µM): 0.648
- relative viability (NCI-H322M; first compound 0.01581 µM): 0.626
- relative viability (NCI-H322M; first compound 0.05 µM): 0.511
- relative viability (NCI-H322M; first compound 0.1581 µM): 0.587
- relative viability (NCI-H322M; first compound 0.5 µM): 0.679
- relative viability (NCI-H2085; first compound 0.005 µM): 0.941
- relative viability (NCI-H2085; first compound 0.01581 µM): 1.01
- relative viability (NCI-H2085; first compound 0.05 µM): 0.885
- relative viability (NCI-H2085; first compound 0.1581 µM): 1.07
- relative viability (NCI-H2085; first compound 0.5 µM): 0.942
- relative viability (NCI-H1975; first compound 0.005 µM): 0.855
- relative viability (NCI-H1975; first compound 0.01581 µM): 0.799
- relative viability (NCI-H1975; first compound 0.05 µM): 0.713
- relative viability (NCI-H1975; first compound 0.1581 µM): 0.752
- relative viability (NCI-H1975; first compound 0.5 µM): 0.646
- relative viability (CAL-12T; first compound 0.005 µM): 0.626
- relative viability (CAL-12T; first compound 0.01581 µM): 0.593
- relative viability (CAL-12T; first compound 0.05 µM): 0.627
- relative viability (CAL-12T; first compound 0.1581 µM): 0.619
- relative viability (CAL-12T; first compound 0.5 µM): 0.541
- relative viability (NCI-H3122; first compound 0.005 µM): 0.982
- relative viability (NCI-H3122; first compound 0.01581 µM): 0.971
- relative viability (NCI-H3122; first compound 0.05 µM): 0.895
- relative viability (NCI-H3122; first compound 0.1581 µM): 0.973
- relative viability (NCI-H3122; first compound 0.5 µM): 0.985
